The record followed here is US20220153745A1, “DISUBSTITUTED BENZOTHIENYL-PYRROLOTRIAZINES AND THEIR USE AS FGFR KINASE INHIBITORS” (Bayer Intellectual Property GmbH, priority 2011, published 2022).

What is called inhibition is how much of the control response was suppressed.

Where a name gives a salt, the structure may show the parent alone.

The experiment deals with T1, mTOR (Homo sapiens, UniProt P42345).
T1 construct: human mTOR amino acids from 1360 to 2549; purchased Invitrogen 4753; host or cells: insect cells
Kind of experiment: mTOR kinase assay (TR-FRET, for comparative purposes). It is filed as biochemical. The following applies: for inhibition at 1 µM: read-out: mTOR % inhibition @ 1 μM, mean inhibition at 1 μM test compound, 40 μM ATP; for mTOR % inhibition @ 1 μM: mean inhibition at 1 μM test compound, 40 μM ATP. For orientation: Time-resolved FRET reads energy transfer from a long-lived donor to a nearby acceptor.

T1 sequence (P42345 1360-2549): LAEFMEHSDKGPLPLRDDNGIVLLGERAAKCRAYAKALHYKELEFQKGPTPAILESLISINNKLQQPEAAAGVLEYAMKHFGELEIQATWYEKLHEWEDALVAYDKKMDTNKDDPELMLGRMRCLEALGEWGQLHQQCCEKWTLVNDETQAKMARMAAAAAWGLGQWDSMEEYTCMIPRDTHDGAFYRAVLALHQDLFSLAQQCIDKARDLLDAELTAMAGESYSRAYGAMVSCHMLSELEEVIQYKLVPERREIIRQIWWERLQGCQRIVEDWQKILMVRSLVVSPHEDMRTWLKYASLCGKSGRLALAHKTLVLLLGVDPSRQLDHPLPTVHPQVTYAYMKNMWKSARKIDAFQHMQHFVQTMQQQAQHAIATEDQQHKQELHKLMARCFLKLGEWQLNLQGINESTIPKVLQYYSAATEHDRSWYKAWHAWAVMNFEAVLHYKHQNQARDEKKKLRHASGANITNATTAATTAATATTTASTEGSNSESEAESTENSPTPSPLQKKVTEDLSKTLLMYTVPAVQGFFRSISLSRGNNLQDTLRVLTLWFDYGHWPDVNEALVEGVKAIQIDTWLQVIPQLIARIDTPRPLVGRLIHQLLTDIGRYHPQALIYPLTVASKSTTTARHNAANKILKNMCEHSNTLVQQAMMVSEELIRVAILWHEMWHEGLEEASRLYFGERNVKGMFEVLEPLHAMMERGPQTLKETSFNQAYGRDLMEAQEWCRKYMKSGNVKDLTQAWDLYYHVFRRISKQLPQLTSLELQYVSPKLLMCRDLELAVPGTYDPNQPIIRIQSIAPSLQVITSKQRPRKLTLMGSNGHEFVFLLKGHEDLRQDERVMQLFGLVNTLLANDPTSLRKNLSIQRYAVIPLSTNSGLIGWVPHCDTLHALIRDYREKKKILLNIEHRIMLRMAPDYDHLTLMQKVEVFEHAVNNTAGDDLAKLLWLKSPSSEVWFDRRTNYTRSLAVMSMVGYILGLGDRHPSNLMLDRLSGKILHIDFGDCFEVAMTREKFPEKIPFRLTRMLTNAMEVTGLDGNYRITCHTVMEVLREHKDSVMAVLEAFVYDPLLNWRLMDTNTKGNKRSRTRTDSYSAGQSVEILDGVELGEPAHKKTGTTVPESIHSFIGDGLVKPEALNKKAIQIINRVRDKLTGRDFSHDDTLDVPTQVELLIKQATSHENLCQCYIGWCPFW

In the case of `COc1cc(C)cc2cc(-c3c(CN4CCNC(=O)C4)c(C#N)n4ncnc(N)c34)sc12` [Example 71, 4-Amino-5-(7-methoxy-5-methyl-1-benzothiophen-2-yl)-6-[(3-oxopiperazin-1-yl)methyl]pyrrolo[2,1-f][1,2,4]triazine-7-carbonitrile], the inhibition at 1 µM was found to be 0.1%.
For the compound `COc1cc(C)cc2cc(-c3c(CNCC(C)(C)O)c(C)n4ncnc(N)c34)sc12` [Example 78, 1-({[4-Amino-5-(7-methoxy-5-methyl-1-benzothiophen-2-yl)-7-methylpyrrolo[2,1-f][1,2,4]triazin-6-yl]methyl}amino)-2-methylpropan-2-ol], the “mTOR % inhibition @ 1 μM” value is given as 5.8%.
As to `COc1cc(C)cc2cc(-c3c(CN4CCNC(=O)C4)c(CN4CCN(C=O)CC4)n4ncnc(N)c34)sc12` [Example 58, 4-({4-Amino-5-(7-methoxy-5-methyl-1-benzothiophen-2-yl)-6-[(3-oxopiperazin-1-yl)methyl]pyrrolo[2,1-f][1,2,4]triazin-7-yl}methyl)piperazine-1-carbaldehyde formiate], the inhibition at 1 µM was 4%.
As to `CCCCOCc1c(-c2cc3cc(C)cc(OC)c3s2)c2c(N)ncnn2c1CN1CCNCC1` [Example 23, 6-(Butoxymethyl)-5-(7-methoxy-5-methyl-1-benzothiophen-2-yl)-7-(piperazin-1-ylmethyl)pyrrolo[2,1-f][1,2,4]triazin-4-amine formiate], the inhibition at 1 µM came out at 11.6%.
`CCCOCc1c(-c2cc3cc(C)cc(OC)c3s2)c2c(N)ncnn2c1CN1CCNCC1` [Example 24, 5-(7-Methoxy-5-methyl-1-benzothiophen-2-yl)-7-(piperazin-1-ylmethyl)-6-(propoxymethyl)pyrrolo[2,1-f][1,2,4]triazin-4-amine bis(formiate)]: the inhibition at 1 µM was found to be 6.3%.
Same read-out and setting: the value for `COc1cc(C)cc2cc(-c3c(COCC(N)=O)c(CN4CCNCC4)n4ncnc(N)c34)sc12` [Example 33, 2-{[4-Amino-5-(7-methoxy-5-methyl-1-benzothiophen-2-yl)-7-(piperazin-1-ylmethyl)pyrrolo[2,1-f][1,2,4]triazin-6-yl]methoxy}acetamide] was 0.9%.
On to `COCc1c(-c2cc3cc(C)cc(OC)c3s2)c2c(N)ncnn2c1CN1CCNC(=O)C1.Cl.Cl` [Example 2, 4-{[4-Amino-6-(methoxymethyl)-5-(7-methoxy-5-methyl-1-benzothiophen-2-yl)pyrrolo[2,1-f][1,2,4]triazin-7-yl]methyl}piperazin-2-one dihydrochloride], for which the “mTOR % inhibition @ 1 μM” value was determined as 7.2%.
In the case of `COC(=O)COCc1c(-c2cc3cc(C)cc(OC)c3s2)c2c(N)ncnn2c1CN1CCNCC1` [Example 31, Methyl {[4-amino-5-(7-methoxy-5-methyl-1-benzothiophen-2-yl)-7-(piperazin-1-ylmethyl)pyrrolo[2,1-f][1,2,4]triazin-6-yl]methoxy}acetate], the inhibition at 1 µM was 16.3%.
The same measure, in the same setting: under `COc1cc(C)cc2cc(-c3c(Cl)c(CN4CCNCC4)n4ncnc(N)c34)sc12` [Example 85, 6-Chloro-5-(7-methoxy-5-methyl-1-benzothiophen-2-yl)-7-(piperazin-1-ylmethyl)pyrrolo[2,1-f]-[1,2,4]triazin-4-amine trihydrochloride] stands 0.9%.
As to `COc1cc(C)cc2cc(-c3c(COCC(=O)O)c(CN4CCNCC4)n4ncnc(N)c34)sc12` [Example 32, {[4-Amino-5-(7-methoxy-5-methyl-1-benzothiophen-2-yl)-7-(piperazin-1-ylmethyl)pyrrolo[2,1-f][1,2,4]triazin-6-yl]methoxy}acetic acid], the inhibition at 1 µM came to 1.6%.
On the same count and under the same terms, under `CCOCc1c(-c2cc3cc(C)cc(OC)c3s2)c2c(N)ncnn2c1C#N` [Example 70, 4-Amino-6-(ethoxymethyl)-5-(7-methoxy-5-methyl-1-benzothiophen-2-yl)pyrrolo[2,1-f][1,2,4]-triazine-7-carbonitrile] stands 5.8%.
Same read-out and setting: under `CCOCc1c(-c2cc3cc(C)cc(OC)c3s2)c2c(N)ncnn2c1CN1CCN(C(C)=O)CC1` [Example 20, 1-(4-{[4-Amino-6-(ethoxymethyl)-5-(7-methoxy-5-methyl-1-benzothiophen-2-yl)pyrrolo[2,1-f]-[1,2,4]triazin-7-yl]methyl}piperazin-1-yl)ethanone] stands 31.3%.
On the same count and under the same terms, under `COc1cc(C)cc2cc(-c3c(CNCC(=O)O)c(CN4CCNCC4)n4ncnc(N)c34)sc12` [Example 48, N-{[4-Amino-5-(7-methoxy-5-methyl-1-benzothiophen-2-yl)-7-(piperazin-1-ylmethyl)pyrrolo[2,1-f]-[1,2,4]triazin-6-yl]methyl}glycine trihydrochloride] stands 4.1%; under `CCOCc1c(-c2cc3cc(C)cc(OC)c3s2)c2c(N)ncnn2c1CN1CCNCC1` [Example 19, 6-(Ethoxymethyl)-5-(7-methoxy-5-methyl-1-benzothiophen-2-yl)-7-(piperazin-1-ylmethyl)pyrrolo[2,1-f][1,2,4]triazin-4-amine dihydrochloride], 17.6%.
On to `COCc1c(-c2cc3cc(C)cc(OC)c3s2)c2c(N)ncnn2c1CN1CCNCC1` [Example 17, 6-(Methoxymethyl)-5-(7-methoxy-5-methyl-1-benzothiophen-2-yl)-7-(piperazin-1-ylmethyl)pyrrolo[2,1-f][1,2,4]triazin-4-amine formiate], for which the inhibition at 1 µM came out at 6.7%.
For `CCOCc1c(-c2cc3cc(C)cc(OC)c3s2)c2c(N)ncnn2c1CN[C@H]1CCNC1=O` [Example 93, (3S)-3-({[4-Amino-6-(ethoxymethyl)-5-(7-methoxy-5-methyl-1-benzothiophen-2-yl)pyrrolo[2,1-f]-[1,2,4]triazin-7-yl]methyl}amino)pyrrolidin-2-one], the inhibition at 1 µM was determined as 12.5%.
On to `COc1cc(C)cc2cc(-c3c(CN4CCNC(=O)C4)c(Cl)n4ncnc(N)c34)sc12` [Example 80, 4-{[4-Amino-7-chloro-5-(7-methoxy-5-methyl-1-benzothiophen-2-yl)pyrrolo[2,1-f][1,2,4]triazin-6-yl]methyl}piperazin-2-one], for which the inhibition at 1 µM turned out to be 3.9%.
On the same count and under the same terms, under `CCOCc1c(-c2cc3cc(C)cc(OC)c3s2)c2c(N)ncnn2c1CN[C@@H]1CCNC1=O` [Example 7, (3R)-3-({[4-Amino-6-(ethoxymethyl)-5-(7-methoxy-5-methyl-1-benzothiophen-2-yl)pyrrolo[2,1-f]-[1,2,4]triazin-7-yl]methyl}amino)pyrrolidin-2-one dihydrochloride] stands 3.1%; under `CCOCc1c(-c2cc3cc(C)cc(OC)c3s2)c2c(N)ncnn2c1C(=O)NCCO` [Example 108], 8.5%; under `COCc1c(-c2cc3cc(C)cc(OC)c3s2)c2c(N)ncnn2c1CN1CCNC(=O)C1` [Example 1, 4-{[4-Amino-6-(methoxymethyl)-5-(7-methoxy-5-methyl-1-benzothiophen-2-yl)pyrrolo[2,1-f]-[1,2,4]triazin-7-yl]methyl}piperazin-2-one], 8.7%.
Still for that read-out and setting: under `COc1cc(C)cc2cc(-c3c(CNC(C)=O)c(CN4CCN(C(C)=O)CC4)n4ncnc(N)c34)sc12` [Example 66, N-({7-[(4-Acetylpiperazin-1-yl)methyl]-4-amino-5-(7-methoxy-5-methyl-1-benzothiophen-2-yl)pyrrolo[2,1-f][1,2,4]triazin-6-yl}methyl)acetamide] stands 15.8%; under `COc1cc(C)cc2cc(-c3c(COCC(F)(F)F)c(CN4CCNCC4)n4ncnc(N)c34)sc12` [Example 29, 5-(7-Methoxy-5-methyl-1-benzothiophen-2-yl)-7-(piperazin-1-ylmethyl)-6-[(2,2,2-trifluoroethoxy)methyl]pyrrolo[2,1-f][1,2,4]triazin-4-amine formiate], 28.5%; under `COCc1c(-c2cc3cc(C)cc(OC)c3s2)c2c(N)ncnn2c1C#N` [Example 69, 4-Amino-6-(methoxymethyl)-5-(7-methoxy-5-methyl-1-benzothiophen-2-yl)pyrrolo[2,1-f][1,2,4]-triazine-7-carbonitrile], 8.7%.
With `COc1cc(C)cc2cc(-c3c(COC(C)C)c(CN4CCNCC4)n4ncnc(N)c34)sc12` [Example 27, 6-(Isopropoxymethyl)-5-(7-methoxy-5-methyl-1-benzothiophen-2-yl)-7-(piperazin-1-ylmethyl)pyrrolo[2,1-f][1,2,4]triazin-4-amine formiate], the inhibition at 1 µM was 5.9%.
Consider `CCN(CC)Cc1c(-c2cc3cc(C)cc(OC)c3s2)c2c(N)ncnn2c1CN1CCNCC1` [Example 43, 6-[(Diethylamino)methyl]-5-(7-methoxy-5-methyl-1-benzothiophen-2-yl)-7-(piperazin-1-ylmethyl)pyrrolo[2,1-f][1,2,4]triazin-4-amine trihydrochloride], for which the inhibition at 1 µM was found to be 10.1%.
On the same count and under the same terms, under `CCOCc1c(-c2cc3cc(C)cc(OC)c3s2)c2c(N)ncnn2c1CN1CCNC(=O)C1` [Example 6, 4-{[4-Amino-6-(ethoxymethyl)-5-(7-methoxy-5-methyl-1-benzothiophen-2-yl)pyrrolo[2,1-f][1,2,4]-triazin-7-yl]methyl}piperazin-2-one dihydrochloride] stands 0.3%; under `COc1cc(C)cc2cc(-c3c(CO)c(CN4CCNCC4)n4ncnc(N)c34)sc12` [Example 12, [4-Amino-5-(7-methoxy-5-methyl-1-benzothiophen-2-yl)-7-(piperazin-1-ylmethyl)pyrrolo[2,1-f]-[1,2,4]triazin-6-yl]methanol bis(formiate)], 25.8%.
Take `CCOCc1c(-c2cc3cc(C)cc(OC)c3s2)c2c(N)ncnn2c1CN1CCS(=O)(=O)CC1` [Example 99]: the inhibition at 1 µM turned out to be 5.3%.
Consider `COc1cc(C)cc2cc(-c3c(CNCC(C)(C)O)c(Cl)n4ncnc(N)c34)sc12` [Example 82, 1-({[4-Amino-7-chloro-5-(7-methoxy-5-methyl-1-benzothiophen-2-yl)pyrrolo[2,1-f][1,2,4]triazin-6-yl]methyl}amino)-2-methylpropan-2-ol], for which the “mTOR % inhibition @ 1 μM” value worked out at 7.1%.
